Reference: the supplement of paper PMC10307832

What was measured:
Assay in all cases: relative viability (nuclei count vs DMSO), 5 days (fraction); higher = more cells survive
[1] = compound: N#CC[C@H](C1CCCC1)n1cc(-c2ncnc3[nH]ccc23)cn1 [Ruxolitinib] + Nc1nc2[nH]cc(CCc3ccc(C(=O)N[C@@H](CCC(=O)O)C(=O)O)cc3)c2c(=O)[nH]1 [Pemetrexed] (partner 0.2 µM)
In short: (§1)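 Nuclei were stained with Hoechst during a one-step fixation (final 0.05% Triton X-100, 1% formaldehyde, 1 ug/ml Hoechst) carried out 5 days after dosing, then counted on 4× images. The cells, lung cancer lines in 1536-well plates, had been dosed by pin tool the day after seeding with one drug alone or a fixed anchor-drug dose plus five library-drug doses (not always all listed) in √10 steps. Relative viability is the nuclei count in treated wells divided by that in vehicle wells, and each value is the median of duplicate plates.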

[2] = compound: CS(=O)(=O)c1ccc(C(=O)Nc2ccc(Cl)c(-c3ccccn3)c2)c(Cl)c1 [Vismodegib] + CC(=O)c1c(C)c2cnc(Nc3ccc(N4CCNCC4)cn3)nc2n(C2CCCC2)c1=O [Palbociclib] (partner 0.5 µM)
In short: as §1

[3] = compound: CS(=O)(=O)c1ccc(-c2cnc(N)c(C(=O)Nc3ccccc3)n2)cc1 [VE-821] + CC1(C)CCC(c2ccc(Cl)cc2)=C(CN2CCN(c3ccc(C(=O)NS(=O)(=O)c4ccc(N[C@H](CCN5CCOCC5)CSc5ccccc5)c(S(=O)(=O)C(F)(F)F)c4)cc3)CC2)C1 [Navitoclax] (partner 0.5 µM)
In short: as §1

[4] = compound: CS(=O)(=O)c1ccc(C(=O)Nc2ccc(Cl)c(-c3ccccn3)c2)c(Cl)c1 [Vismodegib] + CC1(C)CCC(c2ccc(Cl)cc2)=C(CN2CCN(c3ccc(C(=O)NS(=O)(=O)c4ccc(N[C@H](CCN5CCOCC5)CSc5ccccc5)c(S(=O)(=O)C(F)(F)F)c4)cc3)CC2)C1 [Navitoclax] (partner 0.5 µM)
In short: as §1

Cell Line | relative viability ([1]; first compound 0.08 µM) | relative viability ([1]; first compound 0.253 µM) | relative viability ([1]; first compound 0.8 µM) | relative viability ([1]; first compound 2.53 µM) | relative viability ([1]; first compound 8 µM) | relative viability ([2]; first compound 0.08 µM) | relative viability ([2]; first compound 0.253 µM) | relative viability ([2]; first compound 0.8 µM) | relative viability ([2]; first compound 2.53 µM) | relative viability ([2]; first compound 8 µM) | relative viability ([3]; first compound 0.08 µM) | relative viability ([3]; first compound 0.253 µM) | relative viability ([3]; first compound 0.8 µM) | relative viability ([3]; first compound 2.53 µM) | relative viability ([3]; first compound 8 µM) | relative viability ([4]; first compound 0.253 µM) | relative viability ([4]; first compound 0.8 µM) | relative viability ([4]; first compound 2.53 µM) | relative viability ([4]; first compound 8 µM) | relative viability ([4]; first compound 0.08 µM)
NCI-H2405 | 1.07 | 1.11 | 1.13 | 0.895 | 0.592 | 0.527 | 0.493 | 0.498 | 0.515 | 0.571 | 0.873 | 0.888 | 0.762 | 0.942 | 0.751 | 0.93 | 0.86 | 0.712 | 0.904 | –
HOP-62 | 0.324 | 0.363 | 0.299 | 0.314 | 0.323 | 0.4 | 0.411 | 0.425 | 0.46 | 0.39 | 1.22 | 0.91 | 1.16 | 1.17 | 1.12 | 1.06 | 0.915 | 0.819 | 1.07 | 0.985
LCLC-97TM1 | 0.21 | 0.21 | 0.184 | 0.175 | 0.147 | 0.202 | 0.208 | 0.263 | 0.203 | 0.213 | 0.58 | 0.546 | 0.418 | 0.494 | 0.43 | – | 0.443 | – | 0.63 | –
NCI-H3122 | 0.212 | 0.198 | 0.192 | 0.19 | 0.188 | 0.173 | 0.191 | 0.167 | 0.18 | 0.19 | 1.07 | 1.02 | 1.01 | 1.02 | 0.922 | 1.04 | 0.994 | 0.984 | 1.02 | 1.01
PC-14 | – | 0.117 | 0.122 | 0.139 | 0.12 | 0.494 | 0.492 | 0.614 | 0.587 | 0.621 | 1.09 | 0.955 | 1.06 | 0.962 | 0.923 | 0.974 | 1.1 | 0.946 | 0.965 | 0.967
NCI-H2170 | 0.256 | 0.262 | 0.259 | 0.266 | 0.276 | 0.432 | 0.387 | 0.469 | 0.379 | 0.418 | 0.598 | 0.561 | 0.512 | 0.554 | 0.323 | 0.602 | 0.755 | 0.473 | 0.617 | 0.683
NCI-H1650 | 0.311 | 0.43 | 0.351 | 0.333 | 0.346 | 0.365 | 0.363 | 0.305 | 0.304 | 0.366 | 1.45 | 1.25 | 0.725 | 1.29 | 0.751 | 1.27 | 1.2 | 1.17 | 1.14 | 1.14
HCC-366 | 0.162 | 0.193 | 0.155 | 0.192 | 0.147 | 0.342 | 0.373 | 0.463 | 0.456 | 0.449 | 1.34 | 1.02 | 0.925 | 1.02 | 0.0801 | 0.98 | 0.974 | 1.1 | 1.09 | 0.991
HARA | 0.206 | 0.27 | 0.225 | 0.221 | 0.229 | 0.284 | 0.245 | 0.221 | 0.303 | 0.27 | 1.23 | 1.13 | 1.09 | 1.15 | 0.99 | 1.15 | 1.16 | 1.11 | 1.14 | 1.13
COR-L 105 | – | 1 | 0.926 | 0.874 | 0.919 | 0.425 | 0.415 | 0.369 | 0.405 | 0.388 | 0.797 | 0.683 | 0.651 | 0.606 | 0.725 | 0.721 | 1.02 | 0.777 | 0.781 | 0.733
NCI-H1395 | 0.662 | 0.685 | 0.856 | 0.97 | 0.729 | 0.609 | 0.599 | 0.606 | 0.711 | 0.673 | – | 1.09 | 1.3 | 1.32 | 0.72 | 1.09 | 1.01 | 1.11 | 1.23 | 1.02
EMC-BAC-2 | 0.454 | 0.419 | 0.431 | 0.439 | 0.368 | 0.508 | 0.498 | 0.516 | 0.508 | 0.546 | 1.23 | 1.12 | 1.2 | 1.21 | 1.16 | 1.15 | 1.23 | 1.13 | 1.19 | 1.11
NCI-H1666 | 1.01 | 0.814 | 0.988 | 0.786 | 0.887 | 0.634 | 0.678 | 0.637 | 0.624 | 0.691 | 0.98 | 1.01 | 0.939 | 0.875 | 0.703 | 1.02 | 1.15 | 0.936 | 0.934 | 1.08
H3255 | 0.506 | 0.553 | 0.569 | 0.528 | 0.473 | 0.296 | 0.29 | 0.292 | 0.33 | 0.324 | 0.563 | 0.485 | 0.571 | 0.56 | 0.425 | 0.441 | 0.462 | 0.439 | 0.518 | 0.614
NCI-H1793 | 0.835 | 0.938 | 1.15 | 1.06 | 0.664 | – | 0.295 | 0.345 | 0.321 | 0.422 | 0.693 | 0.507 | 0.251 | 0.449 | 0.314 | 0.481 | 0.504 | 0.522 | 0.373 | –
